Data reported in ChEMBL document CHEMBL1154685, “Simple oxidation of pyrimidinylhydrazones to triazolopyrimidines and their inhibition of Shiga toxin trafficking” (Eur J Med Chem, 2010).

Test system: HeLa
Assay: Toxicity in human HeLa cells assessed as inhibition of protein synthesis by [35S]labeled methionine and cysteine incorporation
Assay type: cell-based

Structure (SMILES) | Activity
Oc1ccc(-c2nc3c4c5c(sc4ncn3n2)CCCC5)cc1 | Non-toxic
COc1cc(/C=N/NC2=C3C4=C(CCCC4)SC3N=CN2)ccc1O (configuration not stated) | Non-toxic
